This note sets out measurements from patent US4377587A, “Arylamine derivatives and use thereof as microbicides” (Ciba-Geigy Corporation, priority 1980, dated 1983).

In data set [1] the test system is Phytophthora infestans. Type of data set: in vivo, Phytophthora infestans (on tomato plants). As to conditions: tomato, spray 0.06% active ingredient, infested after 24 hours, evaluated after 5 days at 20° C.
The test system of data set [2] is Phytophthora infestans. Type of data set: in vivo, Phytophthora infestans (on tomato plants). Particulars: tomato, sprayed 0.06% active ingredient 22 hours after infestation, evaluated 5 days after infestation.
For data set [3], the system named is Pythium debaryanum. In words: Action on Pythium debaryanum on sugar beets, (a) after soil application. Type of data set: in vivo. Particulars: sugar beet, 20 ppm of active ingredient based on volume of soil, 2-3 weeks at 20°-24° C. An excerpt: (§1) Action on Pythium debaryanum on sugar beets
(a) Action after soil application
The fungus is cultivated on carrot chips nutrient solution and added to a mixture of earth and sand. Flower pots are filled with the infected soil, in which sugar beet seeds are then sown. Immediately after sowing, the test preparations formulated as wettable powders are poured in the form of aqueous suspensions over the soil (20 ppm of active ingredient, based on the volume of the soil). The pots are then stood for 2-3 weeks in a greenhouse at 20°-24° C. The soil is kept uniformly moist by gently spraying it with water. The emergence of the sugar beet plants as well as the number of healthy and sick plants are ascertained in evaluating the test.

For data set [4], the system named is Pythium debaryanum. In words: Action on Pythium debaryanum on sugar beets, (b) after seed dressing application. Type of data set: in vivo. Particulars: sugar beet, seed dressing 0.06%, 2-3 weeks at c. 20° C. Here is the method:
as §1
(b) Action after seed dressing application
The fungus is cultivated on carrot chip nutrient solution and added to a mixture of earth and sand. Flower pots are filled with the infected soil and sugar beet seeds which have been treated with the test preparations formulated as seed dressing powders are sown therein (0.06% of one of the compounds of Tables 1 and 2). The pots are then stood in a greenhouse for 2-3 weeks at c. 20° C. The soil is kept uniformly moist by gently spraying it with water. The emergence of the sugar beet plants is ascertained in evaluating the test.

In another data set the test system is Podosphaera leucotricha. In words: Residual-protective action against Podosphaera leucotricha on apples. Type of data set: in vivo. Particulars: apple seedlings, spray 0.06% of active ingredient, evaluated 12 days after infection. Here is the method: Residual-protective action against Podosphaera leucotricha on apples
Apple seedlings in the 5-leaf stage are sprayed with a spray mixture (0.06% of active ingredient) prepared from a wettable powder formulation of the active ingredient. After 24 hours the treated plants are infected with a conidia suspension of the fungus and placed in a climatic chamber at 70% relative humidity and 20° C. Evaluation of fungus infestation is made 12 days after infection.

The subject of a further data set is Erysiphe graminis. In words: Action against Erysiphe graminis on barley, residual protective action. In kind it is in vivo, Erysiphe graminis (on barley plants). As to conditions: 0.02% active ingredient sprayed, infected after 3-4 hours, evaluated after 10 days. The procedure: Action against Erysiphe graminis on barley
Residual protective action
Barley plants about 8 cm in height are sprayed with a spray mixture (0.02% of active ingredient) prepared from the active ingredient formulated as a wettable powder. The treated plants are dusted with conidia of the fungus after 3-4 hours. The infected barley plants are then stood in a greenhouse at about 22° C. The extent of the fungus infection is evaluated after 10 days.

The nature of another data set: Water solubility. Type of data set: physicochemical. As to conditions: 25° C. An excerpt:
Determination of physico-chemical data
(a) Reduced water solubility

In brackets after ≈: the same amount, converted by molar mass.

As for `COCC(=O)N(c1c(N)cccc1Cl)C(C)C(=O)OC` (stereo not shown) [Compound 6], the “fungus attack compared with untreated control plants (100% attack), residual-protective” value in the data set on Phytophthora infestans [1] is “less than 10%”. For the same molecule, in the data set with Phytophthora infestans [2], the “fungus attack compared with untreated and infected control plants (100% attack), residual curative” value (shortened to “fungus attack … (100% attack), residual curative”) is recorded as “less than 10%”. Besides, the “emergent plants (fully effective against Pythium pathogens), soil application” value (“emergent plants … soil application” for short) in the data set with Pythium debaryanum [3] is “over 90%”. Also, the “emergent plants (fully effective against Pythium pathogens), seed dressing application” value (“emergent plants … seed dressing application” for short) with Pythium debaryanum [4] was “over 90%”. For the same molecule, the “fungus attack compared with untreated and infected control seedlings (100% attack)” value in the data set on Podosphaera leucotricha is recorded as “less than 10%”.
On to `COC(=O)C(C)N(C(=O)CS(C)(=O)=O)c1c(C)ccc(N)c1C` (stereo not shown) [Compound 14], for which, in the data set with Phytophthora infestans [1], the “fungus attack compared with untreated control plants (100% attack), residual-protective” value was “less than 10%”.
Consider `COCC(=O)N(c1c(C)cc(C)c([N+](=O)[O-])c1C)C(C)C(=O)OC` (stereo not shown) [Compound 29], for which the “fungus attack compared with untreated control plants (100% attack), residual-protective” value in the data set with Phytophthora infestans [1] was “less than 10%”. Besides, the “fungus attack … (100% attack), residual curative” value in the data set on Phytophthora infestans [2] is recorded as “less than 10%”. Besides, the “emergent plants … soil application” value in the data set with Pythium debaryanum [3] is recorded as “over 90%”. Further, the “emergent plants … seed dressing application” value in the data set with Pythium debaryanum [4] is on record as “over 90%”.
Consider `COC(=O)C(C)N(C(=O)C1CCCO1)c1c(C)ccc([N+](=O)[O-])c1C` (stereo not shown) [Compound 35], for which the “fungus attack compared with untreated control plants (100% attack), residual-protective” value in the data set on Phytophthora infestans [1] is “less than 10%”.
For the molecule `COC(=O)C(C)N(C(=O)CS(C)(=O)=O)c1c(C)ccc([N+](=O)[O-])c1C` (stereo not shown) [Compound 38], the “fungus attack compared with control plants (100% attack)” value with Erysiphe graminis is given as “less than 10%”. Moreover, in the data set on Phytophthora infestans [1], the “fungus attack compared with untreated control plants (100% attack), residual-protective” value is listed as “less than 10%”.
On to `COCC(=O)N(c1c(Cl)cccc1[N+](=O)[O-])C(C)C(=O)OC` (stereo not shown) [Compound 57], for which the “fungus attack compared with untreated control plants (100% attack), residual-protective” value with Phytophthora infestans [1] is on record as “less than 10%”.
For the molecule `COCC(=O)N(c1c([N+](=O)[O-])ccc(C)c1C)C(C)C(=O)OC` (stereo not shown) [Compound 59, N-(1'methoxycarbonylethyl)-N-methoxyacetyl-2,3-dimethyl-6-nitroaniline], in the data set on Phytophthora infestans [1], the “fungus attack compared with untreated control plants (100% attack), residual-protective” value is “less than 10%”. Besides, in the data set with Phytophthora infestans [2], the “fungus attack … (100% attack), residual curative” value is “less than 10%”. Further, in the data set with Pythium debaryanum [3], the “emergent plants … soil application” value is reported as “over 90%”. For the same molecule, in the data set on Pythium debaryanum [4], the “emergent plants … seed dressing application” value is on record as “over 90%”.
In the case of `CCOCC(=O)N(c1c(C)ccc([N+](=O)[O-])c1C)C(C)C(=O)OC(C)C` (stereo not shown) [Compound 73], in the data set with Phytophthora infestans [1], the “fungus attack compared with untreated control plants (100% attack), residual-protective” value is given as “less than 10%”. For the same molecule, in the data set on Pythium debaryanum [3], the “emergent plants … soil application” value was “over 90%”. For the same molecule, the “emergent plants … seed dressing application” value in the data set on Pythium debaryanum [4] is recorded as “over 90%”. In addition, in the data set on Podosphaera leucotricha, the “fungus attack compared with untreated and infected control seedlings (100% attack)” value is recorded as “less than 10%”.
In the case of `CCOC(=O)C(C)N(C(=O)COC)c1c(C)ccc([N+](=O)[O-])c1C` (stereo not shown) [Compound 74], in the data set with Phytophthora infestans [1], the “fungus attack compared with untreated control plants (100% attack), residual-protective” value is reported as “less than 10%”. In addition, the “fungus attack … (100% attack), residual curative” value in the data set on Phytophthora infestans [2] is “less than 10%”.
As to `COCC(=O)N(c1c(C)cc([N+](=O)[O-])c(C)c1C)C(C)C(=O)OC` (stereo not shown) [Compound 78], in the data set on Phytophthora infestans [1], the “fungus attack compared with untreated control plants (100% attack), residual-protective” value is listed as “less than 10%”.
Still for that read-out and setting: then `CCOCC(=O)N(c1c(Cl)ccc(N)c1C)C(C)C(=O)OC` (stereo not shown) [Compound 88], with “less than 10%”.
`CCOCC(=O)N(c1cccc([N+](=O)[O-])c1C)C(C)C(=O)OC` (stereo not shown) [Compound 104]: the “fungus attack compared with control plants (100% attack)” value with Erysiphe graminis is given as “less than 10%”.
As to `C=CCN(C(=O)COC)c1c(C)ccc([N+](=O)[O-])c1C` [Compound 111], the “fungus attack compared with untreated control plants (100% attack), residual-protective” value in the data set on Phytophthora infestans [1] was “less than 10%”.
Still for that read-out and setting: under `C#CCN(C(=O)COC)c1c(C)ccc([N+](=O)[O-])c1C` [Compound 117] stands “less than 10%”; under `C#CCN(C(=O)COCC)c1c(C)ccc([N+](=O)[O-])c1C` [Compound 122], “less than 10%”.
The same measure, in the same setting: under `COC(=O)C(C)N(C(=O)C1CC1)c1ccc([N+](=O)[O-])cc1Cl` (stereo not shown) [Compound 138] stands “less than 10%”; under `COC(=O)C(C)N(C(=O)C1CC1)c1ccc(N)cc1Cl` (stereo not shown) [Compound 139], “less than 10%”.
Consider `COCC(=O)N(c1c(C)c(C)c([N+](=O)[O-])c(C)c1C)C(C)C(=O)OC` (stereo not shown) [Compound 141], for which the “fungus attack compared with untreated control plants (100% attack), residual-protective” value in the data set on Phytophthora infestans [1] was “less than 10%”. Further, in the data set on Phytophthora infestans [2], the “fungus attack … (100% attack), residual curative” value is “less than 10%”.
With `CCOCC(=O)N(c1c(C)c(C)c([N+](=O)[O-])c(C)c1C)C(C)C(=O)OC` (stereo not shown) [Compound 142], the “fungus attack compared with control plants (100% attack)” value in the data set on Erysiphe graminis is listed as “less than 10%”. Further, in the data set on Phytophthora infestans [1], the “fungus attack compared with untreated control plants (100% attack), residual-protective” value is given as “less than 10%”. Also, the “fungus attack … (100% attack), residual curative” value with Phytophthora infestans [2] is given as “less than 10%”.
On to `COC(=O)C(C)N(C(=O)C1CCCO1)c1c(C)c(C)c([N+](=O)[O-])c(C)c1C` (stereo not shown) [Compound 144], for which the “fungus attack compared with untreated control plants (100% attack), residual-protective” value in the data set on Phytophthora infestans [1] is “less than 10%”.
As for `COCC(=O)N(c1c(C)c(C)c(N)c(C)c1C)C(C)C(=O)OC` (stereo not shown) [Compound 158], the “fungus attack compared with untreated control plants (100% attack), residual-protective” value with Phytophthora infestans [1] is on record as “less than 10%”. In addition, in the data set on Pythium debaryanum [3], the “emergent plants … soil application” value is reported as “over 90%”. In addition, the “emergent plants … seed dressing application” value with Pythium debaryanum [4] is listed as “over 90%”.
As for `CCOCC(=O)N(c1c(C)c(C)c(N)c(C)c1C)C(C)C(=O)OC` (stereo not shown) [Compound 159], the “fungus attack compared with untreated control plants (100% attack), residual-protective” value in the data set with Phytophthora infestans [1] was “less than 10%”.
On to `COC(=O)C(C)N(C(=O)COC(C)C)c1c(C)c(C)c(N)c(C)c1C` (stereo not shown) [Compound 160], for which, in the data set with Pythium debaryanum [3], the “emergent plants … soil application” value is on record as “over 90%”. Also, in the data set on Pythium debaryanum [4], the “emergent plants … seed dressing application” value was “over 90%”.
In the case of `COC(=O)C(C)N(C(=O)C1CCCO1)c1c(C)c(C)c(N)c(C)c1C` (stereo not shown) [Compound 161], in the data set on Phytophthora infestans [1], the “fungus attack compared with untreated control plants (100% attack), residual-protective” value is on record as “less than 10%”. In the data set with Phytophthora infestans [2], the “fungus attack … (100% attack), residual curative” value is “less than 10%”.
As to `COCC(=O)N(c1c([N+](=O)[O-])ccc2ccccc12)C(C)C(=O)OC` (stereo not shown) [Compound 400, N-(1'methoxycarbonylethyl)-N-methoxyacetyl-2-nitronaphthylamine], the “fungus attack compared with untreated control plants (100% attack), residual-protective” value in the data set with Phytophthora infestans [1] was “less than 10%”. For the same molecule, the “fungus attack … (100% attack), residual curative” value in the data set with Phytophthora infestans [2] is “less than 10%”. The “emergent plants … soil application” value with Pythium debaryanum [3] is listed as “over 90%”. Besides, the “emergent plants … seed dressing application” value with Pythium debaryanum [4] is on record as “over 90%”.
For the molecule `COCC(=O)N(c1c(C)cc([N+](=O)[O-])c2ccccc12)C(C)C(=O)OC` (stereo not shown) [Compound 606], the “fungus attack compared with untreated control plants (100% attack), residual-protective” value in the data set with Phytophthora infestans [1] is listed as “less than 10%”. Also, the “fungus attack … (100% attack), residual curative” value in the data set on Phytophthora infestans [2] is given as “less than 10%”. The “emergent plants … soil application” value with Pythium debaryanum [3] was “over 90%”. In the data set with Pythium debaryanum [4], the “emergent plants … seed dressing application” value was “over 90%”. In addition, in the data set on Podosphaera leucotricha, the “fungus attack compared with untreated and infected control seedlings (100% attack)” value is reported as “less than 10%”.
Turning to `COC(=O)C(C)N(C(=O)C1CCCO1)c1c(C)cc([N+](=O)[O-])c2ccccc12` (stereo not shown) [Compound 607], the “fungus attack compared with untreated control plants (100% attack), residual-protective” value in the data set with Phytophthora infestans [1] is given as “less than 10%”. In addition, the “emergent plants … soil application” value with Pythium debaryanum [3] is reported as “over 90%”. Besides, the “emergent plants … seed dressing application” value in the data set on Pythium debaryanum [4] is recorded as “over 90%”.
As to `COCC(=O)N(c1ccc([N+](=O)[O-])c2ccccc12)C(C)C(=O)OC` (stereo not shown) [Compound 611], the “fungus attack compared with untreated control plants (100% attack), residual-protective” value in the data set with Phytophthora infestans [1] is listed as “less than 10%”. Moreover, in the data set on Phytophthora infestans [2], the “fungus attack … (100% attack), residual curative” value was “less than 10%”.
For the molecule `COCC(=O)N(c1c(C)cccc1C)[C@@H](C)C(=O)OC` [Metalaxyl, N-(2,6-dimethylphenyl)-N-(2'-methoxyacetyl)alanine methyl ester, reference compound], the concentration in solution in the data set “Water solubility” (solubility) came to 800 µg/mL (≈ 2860 µM).
